Experimental data as given in patent US11866450B2, “Modulators of Cystic Fibrosis Transmembrane Conductance regulator, pharmaceutical compositions, methods of treatment, and process for making the modulators” (priority 2018, dated 2024).
pEC50: −log10 of the molar value. Read-outs that look alike come from different tables or passages of the source.

What was measured:
[1] = molecular target: CFTR-mediated chloride transport (Homo sapiens, UniProt P13569); assay type: cell-based; conditions: enteroid cells incubated with test compound 18-24 hours, acute 10 μM forskolin and 300 nM Compound III; for Max. Activity: % of chloride transport with 3 μM Compound A, 3 μM Compound II and 300 nM acute Compound III triple combination control
Chain of CFTR-mediated chloride transport (P13569 whole entry, looked up): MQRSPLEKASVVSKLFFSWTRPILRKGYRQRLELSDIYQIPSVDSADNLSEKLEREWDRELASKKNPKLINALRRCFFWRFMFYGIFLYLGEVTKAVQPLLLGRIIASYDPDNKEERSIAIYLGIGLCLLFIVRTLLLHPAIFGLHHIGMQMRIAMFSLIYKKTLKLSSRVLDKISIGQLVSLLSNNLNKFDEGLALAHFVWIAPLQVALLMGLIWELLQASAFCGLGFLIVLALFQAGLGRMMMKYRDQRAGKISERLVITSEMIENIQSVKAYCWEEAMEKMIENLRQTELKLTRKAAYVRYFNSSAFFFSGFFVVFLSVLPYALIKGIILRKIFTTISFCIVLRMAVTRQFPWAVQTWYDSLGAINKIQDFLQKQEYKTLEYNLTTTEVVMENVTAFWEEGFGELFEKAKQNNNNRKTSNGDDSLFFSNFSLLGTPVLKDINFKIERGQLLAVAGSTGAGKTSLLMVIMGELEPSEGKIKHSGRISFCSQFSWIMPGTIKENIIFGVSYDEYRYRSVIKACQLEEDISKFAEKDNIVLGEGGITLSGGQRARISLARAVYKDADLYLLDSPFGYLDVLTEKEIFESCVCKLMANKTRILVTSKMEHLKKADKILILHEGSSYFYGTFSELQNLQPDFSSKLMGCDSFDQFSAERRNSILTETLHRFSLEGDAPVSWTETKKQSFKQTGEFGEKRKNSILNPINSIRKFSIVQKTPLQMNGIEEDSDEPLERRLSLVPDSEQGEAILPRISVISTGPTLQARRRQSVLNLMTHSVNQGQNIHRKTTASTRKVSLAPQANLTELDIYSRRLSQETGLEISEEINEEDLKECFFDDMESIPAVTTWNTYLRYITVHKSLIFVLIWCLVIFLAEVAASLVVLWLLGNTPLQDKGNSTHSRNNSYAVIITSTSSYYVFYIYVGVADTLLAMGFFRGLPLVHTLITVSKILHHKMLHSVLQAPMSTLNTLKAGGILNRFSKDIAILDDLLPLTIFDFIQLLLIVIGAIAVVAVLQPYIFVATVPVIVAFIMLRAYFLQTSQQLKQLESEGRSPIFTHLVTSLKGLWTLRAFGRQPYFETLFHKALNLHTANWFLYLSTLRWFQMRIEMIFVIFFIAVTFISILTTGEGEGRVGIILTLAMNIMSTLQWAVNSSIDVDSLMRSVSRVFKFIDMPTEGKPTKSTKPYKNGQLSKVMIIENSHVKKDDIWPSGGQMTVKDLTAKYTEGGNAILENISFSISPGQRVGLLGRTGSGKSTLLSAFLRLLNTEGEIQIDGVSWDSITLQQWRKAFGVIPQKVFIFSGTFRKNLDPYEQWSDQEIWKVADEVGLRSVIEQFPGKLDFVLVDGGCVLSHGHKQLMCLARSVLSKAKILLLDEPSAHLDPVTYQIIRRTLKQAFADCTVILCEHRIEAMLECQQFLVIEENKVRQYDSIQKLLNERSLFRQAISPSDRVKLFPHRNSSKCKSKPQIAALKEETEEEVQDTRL
Outline: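 Human intestinal enteroid cells incubated with compound 18–24 h at 37° C., then membrane potential dye (FLIPR) read 15 min after chloride-free stimulation with 10 μM forskolin, 100 μM IBMX and 300 nM Compound III. AUC expressed as % of triple-combination control (3 μM Compound A, 3 μM Compound II, 300 nM Compound III).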

[2] = snar bond, DMSO

| Compound | pEC50 [1] | Max. Activity [1] | also measured |
| --- | --- | --- | --- |
| CC1(C)C[C@H]2CCCNc3cccc(n3)S(=O)(=O)NC(=O)c3ccc(-n4ccc(OCCCC5(C(F)(F)F)CC5)n4)nc3N1C2 [Compound 190, (14R)-12,12-dimethyl-8-(3-{3-[1-(trifluoromethyl)cyclopropyl]propoxy}-1H-pyrazol-1-yl)-2λ^6-thia-3,9,11,18,23-pentaazatetracyclo[17.3.1.111,14.05,10]tetracosa-1(23),5,7,9,19,21-hexaene-2,2,4-trione] | > 6.00 | ++ (++ is 30-60%) | ring closure, yield after HPLC ([2]; from CC1(C)CC(CCCNc2cccc(S(=O)(=O)NC(=O)c3ccc(-n4ccc(OCCCC5(C(F)(F)F)CC5)n4)nc3Cl)n2)CN1, 15-membered ring, K2CO3/CsF/4A MS, 102.3 mM, 150.0 °C, 2 steps): 49% |
| Cc1cn2nc1S(=O)(=O)NC(=O)c1ccc(-n3ccc(OCCC4(C(F)(F)F)CC4)n3)nc1N1CC(CCC2)CC1(C)C (stereo not drawn) [Compound 199, 12,20,20-trimethyl-4-(3-{2-[1-(trifluoromethyl)cyclopropyl]ethoxy}-1H-pyrazol-1-yl)-10λ^6-thia-1,3,9,14,22-pentaazatetracyclo[16.2.1.111,14.02,7]docosa-2(7),3,5,11(22),12-pentaene-8,10,10-trione] | > 6.00 | ++ (++ is 30-60%) | ring closure, yield after HPLC ([2]; from Cc1cn(CCCC2CNC(C)(C)C2)nc1S(=O)(=O)NC(=O)c1ccc(-n2ccc(OCCC3(C(F)(F)F)CC3)n2)nc1Cl, 14-membered ring, K2CO3/CsF/3A MS, 27.4 mM, 150.0 °C): 12% |
| CC1(C)C[C@@H]2CCCNc3cccc(n3)S(=O)(=O)NC(=O)c3ccc(-n4ccc(OCC(C)(C)C(F)(F)F)n4)nc3N1C2 [Compound 208, (14S)-12,12-dimethyl-8-[3-(3,3,3-trifluoro-2,2-dimethylpropoxy)-1H-pyrazol-1-yl]-2λ^6-thia-3,9,11,18,23-pentaazatetracyclo[17.3.1.111,14.05,10]tetracosa-1(22),5,7,9,19(23),20-hexaene-2,2,4-trione] | > 6.00 | +++ (+++ is >60%) | ring closure, yield after HPLC ([2]; from CC1(C)C[C@H](CCCNc2cccc(S(=O)(=O)NC(=O)c3ccc(-n4ccc(OCC(C)(C)C(F)(F)F)n4)nc3Cl)n2)CN1, 15-membered ring, K2CO3/CsF/3A MS, 57.7 mM, 150.0 °C): 51% |
| CC1(C)C[C@@H]2CCCNc3cccc(n3)S(=O)(=O)NC(=O)c3ccc(-n4ccc(OCCC(C)(C)C(F)(F)F)n4)nc3N1C2 [Compound 212, (14S)-12,12-Dimethyl-8-[3-(4,4,4-trifluoro-3,3-dimethylbutoxy)-1H-pyrazol-1-yl]-2λ^6-thia-3,9,11,18,23-pentaazatetracyclo[17.3.1.111,14.05,10]tetracosa-1(22),5,7,9,19(23),20-hexaene-2,2,4-trione] | > 6.00 | +++ (+++ is >60%) | ring closure, yield after HPLC ([2]; from CC(C)(C)OC(=O)N1C[C@@H](CCCNc2cccc(S(=O)(=O)NC(=O)c3ccc(-n4ccc(OCCC(C)(C)C(F)(F)F)n4)nc3Cl)n2)CC1(C)C, 15-membered ring, K2CO3/CsF/3A MS, 21.2 mM, 130.0 °C, 2 steps): 51% |
| CC(C)C(COc1ccn(-c2ccc3c(n2)N2CC(CCCNc4cccc(n4)S(=O)(=O)NC3=O)CC2(C)C)n1)C(C)C (stereo not drawn) [Compound 220, 12,12-Dimethyl-8-{3-[3-methyl-2-(propan-2-yl)butoxy]-1H-pyrazol-1-yl}-2λ^6-thia-3,9,11,18,23-pentaazatetracyclo[17.3.1.111,14.05,10]tetracosa-1(23),5(10),6,8,19,21-hexaene-2,2,4-trione] | > 6.00 | +++ (+++ is >60%) | ring closure, yield after HPLC ([2]; from CC(C)C(COc1ccn(-c2ccc(C(=O)NS(=O)(=O)c3cccc(NCCCC4CCC(C)(C)N4C(=O)OC(C)(C)C)n3)c(Cl)n2)n1)C(C)C, 15-membered ring, K2CO3/CsF/3A MS, 83.8 mM, 140.0 °C, 2 steps): 39% |
| CC1(C)C[C@@H]2CCCn3ccc(n3)S(=O)(=O)NC(=O)c3ccc(-n4ccc(OCCC(C)(C)C(F)(F)F)n4)nc3N1C2 [Compound 221, (18S)-20,20-Dimethyl-4-[3-(4,4,4-trifluoro-3,3-dimethylbutoxy)-1H-pyrazol-1-yl]-10λ^6-thia-1,3,9,14,22-pentaazatetracyclo[16.2.1.111,14.02,7]docosa-2,4,6,11(22),12-pentaene-8,10,10-trione] | > 6.00 | +++ (+++ is >60%) | ring closure, yield after HPLC ([2]; from CC(C)(C)OC(=O)N1C[C@@H](CCCn2ccc(S(=O)(=O)NC(=O)c3ccc(-n4ccc(OCCC(C)(C)C(F)(F)F)n4)nc3Cl)n2)CC1(C)C, 14-membered ring, K2CO3/CsF/3A MS, 22.0 mM, 130.0 °C, 2 steps): 21% |
| CC(C)COc1cc(F)cc(-c2ccc3c(n2)N2C[C@@H](CCCNc4cccc(n4)S(=O)(=O)NC3=O)CC2(C)C)c1 [Compound 224, (14S)-8-[3-Fluoro-5-(2-methylpropoxy)phenyl]-12,12-dimethyl-2λ^6-thia-3,9,11,18,23-pentaazatetracyclo[17.3.1.111,14.05,10]tetracosa-1(22),5,7,9,19(23),20-hexaene-2,2,4-trione] | > 6.00 | +++ (+++ is >60%) | ring closure, yield after HPLC ([2]; from CC(C)COc1cc(F)cc(-c2ccc(C(=O)NS(=O)(=O)c3cccc(NCCC[C@@H]4CN(C(=O)OC(C)(C)C)C(C)(C)C4)n3)c(Cl)n2)c1, 15-membered ring, K2CO3/CsF/3A MS, 30.6 mM, 150.0 °C, 2 steps): 14% |
| CC(C)COc1cc(F)cc(-c2ccc3c(n2)N2C[C@@H](CCCn4ccc(n4)S(=O)(=O)NC3=O)CC2(C)C)c1 [Compound 226] | > 6.00 | ++ (++ is 30-60%) | ring closure, yield after HPLC ([2]; from CC(C)COc1cc(F)cc(-c2ccc(C(=O)NS(=O)(=O)c3ccn(CCC[C@@H]4CN(C(=O)OC(C)(C)C)C(C)(C)C4)n3)c(Cl)n2)c1, 14-membered ring, K2CO3/CsF/3A MS, 15.0 mM, 150.0 °C, 2 steps): 34% |
| CC(C)C(COc1ccn(-c2ccc3c(n2)N2C[C@@H](CCCNc4cccc(n4)S(=O)(=O)NC3=O)CC2(C)C)n1)C(C)C [Compound 227, (14S)-12,12-Dimethyl-8-{3-[3-methyl-2-(propan-2-yl)butoxy]-1H-pyrazol-1-yl}-2λ^6-thia-3,9,11,18,23-pentaazatetracyclo[17.3.1.111,14.05,10]tetracosa-1(23),5(10),6,8,19,21-hexaene-2,2,4-trione] | > 6.00 | +++ (+++ is >60%) | ring closure, yield after HPLC ([2]; from CC(C)C(COc1ccn(-c2ccc(C(=O)NS(=O)(=O)c3cccc(NCCC[C@@H]4CNC(C)(C)C4)n3)c(Cl)n2)n1)C(C)C, 15-membered ring, K2CO3/CsF/4A MS, 73.3 mM, 150.0 °C): 20% |
| CC1(C)C[C@@H]2CCCNc3cccc(n3)S(=O)(=O)NC(=O)c3ccc(-n4ccc(OCCC(C5CCC5)C5CCC5)n4)nc3N1C2 [Compound 231, (14S)-8-[3-(3,3-dicyclobutylpropoxy)-1H-pyrazol-1-yl]-12,12-dimethyl-2λ^6-thia-3,9,11,18,23-pentaazatetracyclo[17.3.1.111,14.05,10]tetracosa-1(22),5,7,9,19(23),20-hexaene-2,2,4-trione] | > 6.00 | +++ (+++ is >60%) | ring closure, yield after HPLC ([2]; from CC1(C)C[C@H](CCCNc2cccc(S(=O)(=O)NC(=O)c3ccc(-n4ccc(OCCC(C5CCC5)C5CCC5)n4)nc3Cl)n2)CN1, 15-membered ring, K2CO3/CsF/3A MS, 21.1 mM, 165.0 °C, 16.0 h): 32% |
| CC(C)C(COc1ccn(-c2ccc3c(n2)N2CC(CC2(C)C)OCCNc2cccc(n2)S(=O)(=O)NC3=O)n1)C(C)C (stereo not drawn) [Compound 238, 12,12-dimethyl-8-{3-[3-methyl-2-(propan-2-yl)butoxy]-1H-pyrazol-1-yl}-15-oxa-2λ^6-thia-3,9,11,18,23-pentaazatetracyclo[17.3.1.111,14.05,10]tetracosa-1(23),5(10),6,8,19,21-hexaene-2,2,4-trione] | > 6.00 | +++ (+++ is >60%) | ring closure, yield after HPLC ([2]; from CC(C)C(COc1ccn(-c2ccc(C(=O)NS(=O)(=O)c3cccc(NCCOC4CN(C(=O)OC(C)(C)C)C(C)(C)C4)n3)c(Cl)n2)n1)C(C)C, 15-membered ring, K2CO3/CsF/3A MS, 78.4 mM, 140.0 °C, 2 steps): 44% |
| [2H]C1(CCOc2ccn(-c3ccc4c(n3)N3C[C@@H](CCCNc5cccc(n5)S(=O)(=O)NC4=O)CC3(C)C)n2)C2(CC2)C12CC2 [Compound 253, (14S)-8-(3-{2-[(7-deuterio)dispiro[2.0.2.1]heptan-7-yl]ethoxy}-1H-pyrazol-1-yl)-12,12-dimethyl-2λ^6-thia-3,9,11,18,23-pentaazatetracyclo[17.3.1.111,14.05,10]tetracosa-1(22),5,7,9,19(23),20-hexaene-2,2,4-trione] | > 6.00 | +++ (+++ is >60%) | ring closure, yield after HPLC ([2]; from [2H]C1(CCOc2ccn(-c3ccc(C(=O)NS(=O)(=O)c4cccc(NCCC[C@@H]5CN(C(=O)OC(C)(C)C)C(C)(C)C5)n4)c(Cl)n3)n2)C2(CC2)C12CC2, 15-membered ring, K2CO3/CsF/3A MS, 20.4 mM, 150.0 °C, 2 steps): 43% |
| CC1(C)C[C@@H]2CCCNc3cccc(n3)S(=O)(=O)NC(=O)c3ccc(-n4ccc(O)n4)nc3N1C2 [Compound 256, (14S)-8-(3-hydroxy-1H-pyrazol-1-yl)-12,12-dimethyl-2λ^6-thia-3,9,11,18,23-pentaazatetracyclo[17.3.1.111,14.05,10]tetracosa-1(22),5,7,9,19(23),20-hexaene-2,2,4-trione] | < 5.52 | ++ (++ is 30-60%) | ring closure, yield after HPLC ([2]; from CC(C)(C)OC(=O)N1C[C@@H](CCCNc2cccc(S(=O)(=O)NC(=O)c3ccc(-n4ccc(OCC5C(C)(C)C5(C)C)n4)nc3Cl)n2)CC1(C)C, 15-membered ring, TFA/DCM, then K2CO3/CsF/3A MS, 23.1 mM, 150.0 °C, 2 steps): 17% |
